In patent US20240366543A1, “METHODS OF TREATING METHYLMALONIC ACIDEMIA AND PROPIONIC ACIDEMIA” (HemoShear Therapeutics, Inc., priority 2021, published 2024):

Assays:
[1] = tested on: Hepatocytes from propionic academia patients; assay: Ureagenesis (15N-urea) in HemoShear REVEAL-Tx technology (Example 3); format: cell-based, human; settings: PA primary hepatocytes, treated day 5 to day 7, 15N-NH4Cl 4 hrs
Text: (§1) For this experiment, we deployed the HemoShear REVEAL-Tx™ technology, which is based on the cone-and-plate configuration or viscometer combined with a porous polycarbonate membrane that mimics a filtering layer of sinusoidal endothelial cells (see: Dash A, Deering TG, Marukian S, et al. Physiological Hemodynamics and Transport Restore Insulin and Glucagon Responses in a Normal Glucose Milieu in Hepatocytes In Vitro. 73rd Scientific Sessions of the American Diabetes Association, 2013 (Chicago), and U.S. Pat. Nos. 7,811,782 and 9,500,642, and 9,617,521, each of which is incorporated by reference herein in its entirety).
Hepatocytes from propionic academia patients are plated in a collagen gel sandwich on one side of the membrane replicating the polarized orientation found in vivo within the hepatic sinusoids. On the other side, medium is continuously perfused and surface shear rates are applied across a range of physiological values derived from sinusoidal flow rates in vivo while also controlling transport in the system with in- and out-flow tubing to each compartment. […]
Hepatocytes are treated with increasing doses of Compound 5 (0, 0.1, 0.3, 1, 3, 10, 30, 100 μM) in the HemoShear REVEAL-Tx™ technology from day 5 to day 7. […] After 4 hrs, cells are washed 2× in saline solution and lysed, scraped and harvested using 80% methanol. ^15N-urea is measured by GCMSMS.

Normal pHeps = assay: HemoShear Technology, normal pHeps; format: cell-based, human; settings: exposed 6 days
Text: as §1, with “entirety). […]” for “entirety).”
In PA and MMA pHeps, where P-CoA and M-CoA levels are very high, there is a dramatic reduction in P-CoA and M-CoA pools with Compound 5 treatment (Table 2 and Table 3). […] The effect of Compound 5 on levels of acetyl-CoA were measured in PA and MMA pHeps in acute static experiments and in PA, MMA and normal pHeps following chronic exposures in the HemoShear Technology (FIG. 5B; FIG. 6B). […]
To further evaluate the hypothesis that Compound 5 drives a redistribution of the acyl-CoA pools resulting in a reduction in P-CoA and M-CoA, the levels of CoASH were measured in the PA and MMA disease models. […]

PA pHeps = assay: Static cell culture, PA pHeps, low/high propiogenic media; format: cell-based, human; settings: for % change at 30 μM, 13C-Propionyl-CoA (13C-P-CoA): static cell culture; for Percent change (30 μM), 12C-Acetyl-CoA / Percent change (30 μM), CoASH: static culture 1.5 h
Method: Unlike the HemoShear Technology, this assay is carried out without constant perfusion, utilizing cell culture media that was customized to mimic plasma levels of propiogenic sources (amino acids and ketoacids) in PA and MMA patients during periods of relative metabolic stability (low propiogenic media) and acute metabolic crisis (high propiogenic media). PA and MMA pHeps, in static cell culture, were treated with Compound 5 (concentrations ranging from 0.1 μM to 100 μM) for 30 minutes in low propiogenic media, followed by either a continuation of low propiogenic media or a switch to the high propiogenic media for 1 hour. The media used during the 1-hour incubation contained propiogenic SIL amino acids and ketoacids which are metabolized into labeled P-CoA and M-CoA in the cells. The SIL amino acids and ketoacids were a mix of ^13C and MeD8 labelling, but their catabolism produced a SIL P-CoA (denoted as ^13C—P-CoA for simplicity) with the same mass, independent of the type of SIL (also true for ^13C-M-CoA).

[2] = tested on: primary hepatocytes of propionic acidemia patients; assay: Propionyl-CoA from 13C-labelled sources in PA primary hepatocytes (Example 1); format: cell-based, human; settings: 0-100 μM
Method: Primary hepatocytes isolated from livers of propionic acidemia patients are treated with increasing doses of Compound 5 (0, 0.1, 0.3, 1, 3, 10, 30, 100 μM) for 30 minutes. After 30 minutes the cells are challenged with the different sources of P-CoA, which may include 13C-KIVA (1 mM), 13C-isoleucine (3 mM), 13C-threonine (5 mM), 13C-methionine (5 mM), 13C-heptanoate (100 μM), or 13C-propionate (5 mM) for 60 minutes. At the end of the challenge period, media is removed and the cells are lysed with 70% MeCN and 0.1% TFA containing 100 μM of ethymalonyl-CoA as an internal standard and harvested. Cell lysates are processed for HTMS/MS analysis.

[3] = tested on: primary hepatocyte model of isovaleric acidemia; assay: Isovaleryl-CoA from 13C-leucine in primary hepatocyte model of isovaleric acidemia (Example 4); format: cell-based; settings: primary hepatocytes with/without isovaleryl-CoA dehydrogenase inhibitor
Method: Primary hepatocytes are treated with increasing doses of Compound 5 (0, 0.1, 0.3, 1, 3, 10, 30, 100 μM) with and without an inhibitor for isovaleryl-CoA dehydrogenase for 30 min. After 30 min the cells are challenged with 13C-leucine. At the end of the challenge period, media is removed and the cells are lysed with 70% MeCN and 0.1% TFA containing 100 μM of ethymalonyl-CoA as an internal standard and harvested. Cell lysates are processed for HTMS/MS analysis.

## CCC(C)(C)C(=O)O [Compound 5, 2,2-dimethylbutyric acid]
[1]
  15N-urea (ureagenesis): dose-dependent increase
Normal pHeps
  Percent change at 30 μM, 12C-Acetyl-CoA: 20 ± 2.9%
  Percent change at 30 μM, CoASH: −35.2 ± 3%
PA pHeps; high propiogenic media
  % change at 30 μM, 13C-Propionyl-CoA (13C-P-CoA): −85.3±9.1%
  Percent change (30 μM), 12C-Acetyl-CoA: −27 ± 3.4%
  Percent change (30 μM), CoASH: −48 ± 14.3%
PA pHeps; low propiogenic media
  % change at 30 μM, 13C-Propionyl-CoA (13C-P-CoA): −76.4±12.6%
  Percent change (30 μM), 12C-Acetyl-CoA: −36.6 ± 13.5%
  Percent change (30 μM), CoASH: −55.2 ± 7.1%
[2]
  intracellular propionyl-CoA from all sources investigated: dose-dependent reduction
[3]
  intracellular isovaleryl-CoA derived from 13C-leucine: dose-dependent reduction
